Values joined by “and” are separate entries in the source; they are usually repeats but may differ in a detail not shown here. Identical values can stand only once. Like-named read-outs stand apart in the source and are kept apart here.
How the values were obtained:
SFRP-1 [1] = target: T1, SFRP-1 (Homo sapiens, UniProt Q8N474); test: Fluorescence polarization binding assay (competitive displacement of a probe compound from SFRP-1); conditions: fluorescence anisotropy, 45 nM SFRP-1, 20 nM probe;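 also: test compound competes with a fluorescent probe held by SFRP-1, seen as a drop in probe anisotropy after incubation in darkness, with anisotropy as function of rising compound dose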
T1 sequence (Q8N474 32-314): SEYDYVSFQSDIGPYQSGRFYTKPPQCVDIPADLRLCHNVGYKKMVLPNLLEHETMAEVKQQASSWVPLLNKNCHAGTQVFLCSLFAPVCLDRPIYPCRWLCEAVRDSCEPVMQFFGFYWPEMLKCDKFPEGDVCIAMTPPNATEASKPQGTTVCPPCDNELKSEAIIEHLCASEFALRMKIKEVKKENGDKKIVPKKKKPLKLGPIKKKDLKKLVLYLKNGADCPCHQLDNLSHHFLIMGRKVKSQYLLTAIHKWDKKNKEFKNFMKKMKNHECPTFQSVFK

SFRP-1 [2] = target: T1, SFRP-1; test: Cell-based assay for in vitro measurement of SFRP-1/SARP2 antagonist activity (U2OS cells co-transfected with 16x TCF-tk-Luciferase reporter, Wnt and hSFRP-1); conditions: for fold induction at 15 µM / fold induction at 10 µM: U2OS; for fold induction at 10 µM: read-out: Fold Induction with SFRP-1, U2OS cells, single dose 10 μM, luciferase reporter, fold induction over SFRP-1 control;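 as to all read-outs here: U2OS cells co-transfected with a TCF-tk luciferase reporter, a Wnt vector, hSFRP-1 or empty vector and CMV-βgal, luciferase luminescence read in cell lysates alongside βgal activity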
[3] = read-out: Fold Induction with SFRP-1, Conc 15 μM, single dose, luciferase reporter, fold induction over SFRP-1 control, cells with SFRP-1
[4] = read-out: Fold Induction without SFRP-1, Conc 15 μM, single dose, luciferase reporter, cells without SFRP-1 (specificity control)

IC50 (SFRP-1 [1]) | fold induction at 15 µM (SFRP-1 [2]; [3]) | fold induction at 15 µM (SFRP-1 [2]; [4]) | EC50 (SFRP-1 [2]) [µM] | fold induction at 10 µM (SFRP-1 [2]) | fold induction at 15 µM (SFRP-1 [2]; read-out: Fold Induction with SFRP-1, Conc 15 μM, with SFRP-1, fold induction over SFRP-1 control, single dose) | fold induction at 15 µM (SFRP-1 [2]; read-out: Fold Induction without SFRP-1, Conc 15 μM, without SFRP-1, single dose) | Structure (SMILES)
1.5 µM and 2.6 µM | 2.2 | 1.2 |  |  |  |  | CC(C)c1ccc(S(=O)(=O)c2ccc(N(C)C)cc2)cc1S(=O)(=O)NCCC1CCOCC1 [Example 546, 5-{[4-(dimethylamino)phenyl]sulfonyl}-2-isopropyl-N-[2-(tetrahydro-2H-pyran-4-yl)ethyl]benzenesulfonamide]
1.5 µM |  |  | 2.29 |  |  |  | NCCCNS(=O)(=O)c1cc(S(=O)(=O)c2ccccc2)ccc1C(F)(F)F [Example 993, N-(3-aminopropyl)-5-(phenylsulfonyl)-2-(trifluoromethyl)benzenesulfonamide]
3 µM |  |  | 1.86 | 2.8 |  |  | COC(=O)C1CCCC(NS(=O)(=O)c2cc(S(=O)(=O)c3ccccc3)ccc2C(C)C)C1 (centres unmarked) [Example 932, methyl 3-({[2-isopropyl-5-(phenylsulfonyl)phenyl]sulfonyl}amino)cyclohexanecarboxylate]
0.3 µM |  |  | 1.14 | 3.3 |  |  | O=S(=O)(NC1CCOCC1)c1cc(S(=O)(=O)c2ccc(F)cc2)ccc1C(F)(F)F [Example 817, 5-[(4-fluorophenyl)sulfonyl]-N-(tetrahydro-2H-pyran-4-yl)-2-(trifluoromethyl)benzenesulfonamide]
0.4 µM |  |  | 1.98 | 2.5 |  |  | O=S(=O)(NC1CCOCC1)c1cc(S(=O)(=O)c2cccc(Cl)c2)ccc1C(F)(F)F [Example 754, 5-[(3-chlorophenyl)sulfonyl]-N-(tetrahydro-2H-pyran-4-yl)-2-(trifluoromethyl)benzenesulfonamide]
0.5 µM |  |  | 1.44 |  |  |  | O=S(=O)(NCc1ccc(N2CCCC2)nc1)c1cc(S(=O)(=O)c2ccccc2)ccc1C(F)(F)F [Example 1032, 5-(phenylsulfonyl)-N-[(6-pyrrolidin-1-ylpyridin-3-yl)methyl]-2-(trifluoromethyl)benzenesulfonamide]
1.6 µM and 2.9 µM | 3.6 | 1.5 |  |  |  |  | CC(C)c1ccc(S(=O)(=O)c2ccc(N3CCN(C)CC3)cc2)cc1S(=O)(=O)NCCC1CCOCC1 [Example 549, 2-isopropyl-5-{[4-(4-methylpiperazin-1-yl)phenyl]sulfonyl}-N-[2-(tetrahydro-2H-pyran-4-yl)ethyl]benzenesulfonamide]
1.8 µM |  |  | 1.92 | 2.5 |  |  | CC(C)c1ccc(S(=O)(=O)c2ccccc2)cc1S(=O)(=O)NC1CCNCC1 [Example 924, 2-isopropyl-5-(phenylsulfonyl)-N-piperidin-4-ylbenzenesulfonamide]
0.26 µM |  |  | 1.46 | 3.7 |  |  | CCCCNC(=O)N(C)CCNS(=O)(=O)c1cc(S(=O)(=O)c2ccccc2)ccc1C(F)(F)F [Example 831, N-(2-[[(butylamino)carbonyl](methyl)amino]ethyl}-5-(phenylsulfonyl)-2-(trifluoromethyl)benzenesulfonamide]
1.3 µM | 2.9 | 1.1 |  |  |  |  | CCCc1ccc(S(=O)(=O)c2ccccc2)cc1S(=O)(=O)NCCc1ccccc1 [Example 550, N-(2-phenylethyl)-5-(phenylsulfonyl)-2-propylbenzenesulfonamide]
0.03 µM |  |  | 0.386 |  |  |  | O=C(O)c1ccc(S(=O)(=O)N2CCC[C@H]2C(=O)N2CCC(NS(=O)(=O)c3cc(S(=O)(=O)c4ccccc4)ccc3C(F)(F)F)CC2)cc1 [Example 1080, 4-[((2S)-2-{[4-({[5-(phenylsulfonyl)-2-(trifluoromethyl)phenyl]sulfonyl}amino)piperidin-1-yl]carbonyl}pyrrolidin-1-yl)sulfonyl]benzoic acid]
1.7 µM |  |  | 8.5 | 3 |  |  | Cc1ccccc1NC(=S)N1CCC(NS(=O)(=O)c2cc(S(=O)(=O)c3ccc(F)cc3)ccc2C(C)C)CC1 [Example 692, 4-[({5-[(4-fluorophenyl)sulfonyl]-2-isopropylphenyl}sulfonyl)amino]-N-(2-methylphenyl)piperidine-1-carbothioamide]
2.4 µM | 3.2 | 1 |  |  |  |  | N#CCCNS(=O)(=O)c1cc(S(=O)(=O)c2ccccc2)ccc1Cl [Example 643, 2-chloro-N-(2-cyanoethyl)-5-(phenylsulfonyl)benzenesulfonamide]
0.8 µM |  |  | 2.83 | 3.2 |  |  | CC(C)c1ccc(S(=O)(=O)c2ccccc2)cc1S(=O)(=O)NC1CCOCC1 [Example 670, 2-isopropyl-5-(phenylsulfonyl)-N-(tetrahydro-2H-pyran-4-yl)benzenesulfonamide]
0.3 µM |  |  | 0.582 | 3.4 |  |  | O=C(c1ccccc1OC(F)(F)F)N1CCC(NS(=O)(=O)c2cc(S(=O)(=O)c3ccccc3)ccc2C(F)(F)F)CC1 [Example 758, 5-(phenylsulfonyl)-N-{1-[2-(trifluoromethoxy)benzoyl]piperidin-4-yl}-2-(trifluoromethyl)benzenesulfonamide]
0.6 µM |  |  | 1.78 | 4 |  |  | CNc1ccccc1S(=O)(=O)c1ccc(C(F)(F)F)c(S(=O)(=O)NC2CCNCC2)c1 [Example 861, 5-{[2-(methylamino)phenyl]sulfonyl}-N-piperidin-4-yl-2-(trifluoromethyl)benzenesulfonamide]
0.8 µM and 0.7 µM | 3.8 | 1 |  |  |  |  | CC(C)c1ccc(S(=O)(=O)c2ccc(F)cc2)cc1S(=O)(=O)NCCc1ccc[n+]([O-])c1 [Example 652, 5-[(4-fluorophenyl)sulfonyl]-2-isopropyl-N-[2-(1-oxidopyridin-3-yl)ethyl]benzenesulfonamide]
15 µM |  |  |  | 1.7 |  |  | Cc1cc(C)c(S(=O)(=O)c2ccccc2)cc1S(=O)(=O)NCC(O)c1ccccn1 (centres unmarked) [Example 729, N-(2-hydroxy-2-pyridin-2-ylethyl)-2,4-dimethyl-5-(phenylsulfonyl)benzenesulfonamide]
0.2 µM |  |  | 0.236 |  |  |  | O=C(c1ccc(-c2ccccc2)nc1)N1CCC(NS(=O)(=O)c2cc(S(=O)(=O)c3ccccc3)ccc2C(F)(F)F)CC1 [Example 1024, N-{1-[(6-phenylpyridin-3-yl)carbonyl]piperidin-4-yl}-5-(phenylsulfonyl)-2-(trifluoromethyl)benzenesulfonamide]
0.04 µM |  |  | 0.137 | 3.4 |  |  | O=C(O)c1cccc(NC(=S)N2CCC(NS(=O)(=O)c3cc(S(=O)(=O)c4ccccc4)ccc3C(F)(F)F)CC2)c1 [Example 855, 3-({[4-({[5-(phenylsulfonyl)-2-(trifluoromethyl)phenyl]sulfonyl}amino)piperidin-1-yl]carbonothioyl}amino)benzoic acid]
0.3 µM |  |  | 1 | 4.8 |  |  | O=S(=O)(NCC(O)c1cccnc1)c1cc(S(=O)(=O)c2ccccc2)ccc1C(F)(F)F (centres unmarked) [Example 741, N-(2-hydroxy-2-pyridin-3-ylethyl)-5-(phenylsulfonyl)-2-(trifluoromethyl)benzenesulfonamide]
0.13 µM |  |  | 0.577 |  |  |  | CN(CCNS(=O)(=O)c1cc(S(=O)(=O)c2ccccc2)ccc1C(F)(F)F)C(=O)N[C@@H]1CCN(C(=O)OC(C)(C)C)C1 [Example 990, tert-butyl (3R)-3-[({methyl[2-({[5-(phenylsulfonyl)-2-(trifluoromethyl)phenyl]sulfonyl}amino)ethyl]amino}carbonyl)amino]pyrrolidine-1-carboxylate]
4 µM |  |  | 17.6 | 3.3 |  |  | O=S(=O)(NC1CCOCC1)c1cc(S(=O)(=O)c2ccccc2)ccc1OC(F)(F)F [Example 662, 5-(phenylsulfonyl)-N-(tetrahydro-2H-pyran-4-yl)-2-(trifluoromethoxy)benzenesulfonamide]
2.8 µM |  |  |  |  | 2.5 | 1.2 | CCOC(=O)N1CCC(NS(=O)(=O)c2cc(S(=O)(=O)c3ccccc3)ccc2C)CC1 [Example 425, ethyl 4-({[2-methyl-5-(phenylsulfonyl)phenyl]sulfonyl}amino)piperidine-1-carboxylate]
0.7 µM |  |  | 0.609 | 3 |  |  | CC(C)c1ccc(S(=O)(=O)c2ccc(F)cc2)cc1S(=O)(=O)NC1CCN(C(=S)NCCN2CCOCC2)CC1 [Example 698, 4-[({5-[(4-fluorophenyl)sulfonyl]-2-isopropylphenyl}sulfonyl)amino]-N-(2-morpholin-4-ylethyl)piperidine-1-carbothioamide]
2.3 µM | 1.7 | 1 |  |  |  |  | Cc1ccc(S(=O)(=O)c2ccccc2)cc1S(=O)(=O)NC1CCN(C(=O)NC(C)(C)C)CC1 [Example 490, N-(tert-butyl)-4-({[2-methyl-5-(phenylsulfonyl)phenyl]sulfonyl}amino)piperidine-1-carboxamide]
0.5 µM |  |  | 1.11 |  |  |  | O=S(=O)(NCc1ccc(Cl)nc1)c1cc(S(=O)(=O)c2ccccc2)ccc1C(F)(F)F [Example 1030, N-[(6-chloropyridin-3-yl)methyl]-5-(phenylsulfonyl)-2-(trifluoromethyl)benzenesulfonamide]
